Where two headings read alike, the source gives them in different places.
Key:
INSR = assay: Insulin HeLa phospho-Akt; format: cell-based; conditions: upstream kinase INSR
Protocol: Growth factor-dependent protein phosphorylation was detected in HeLa cells by staining permeabilized cells with phospho-specific antibodies and quantified by chemiluminescence (Luminator, Wallac Multilabel Counter; Perkin Elmer). Akt phosphorylation was measured following insulin stimulation and EGFR phosphorylation was measured following EGF stimulation (Phospho-AKT, Cell signaling technology, Danvers, Mass.; 1 μM Insulin, Millipore, Billerica, Mass.; Phospho-EGFR, tyr1173, clone 53A3, Cell Signaling Technology; 200 ng/ml recombinant human EGF, PeproTech, Hamburg, Germany). Human umbilical vein endothelial cells (HUVECs) were stimulated with VEGF and VEGFR2 phosphorylation was assessed by ELISA (100 ng/ml VEGF165, R&D Systems; Rabbit anti-phospho-VEGFR2 mAb, Cell Signaling Technology).

Syk [1] = assay: Anti-IgM Ramos phospho-Erk; format: cell-based; conditions: Homo sapiens, read-out: Anti-IgM Ramos phospho-Erk EC50
Protocol: (§1) The erythropoietin (EPO)-dependent survival of cultured human erythroid progenitor cells (CHEPs) was determined using CellTiter-Glo® Luminescent Cell Viability Assay (Promega). Human primary T cell activation was assessed by measuring IL-2 production by ELISA (R&D Systems, Minneapolis, Minn., USA) following plate-bound anti-CD3 and anti-CD28 stimulation (Anti-Human CD3; BD Biosciences; Anti-Human CD28; Immunotech; Prague, Czech Republic). The enzymatic activity of tryptase released by human cultured mast cells (CHMCs) upon stimulation with IgE was quantified by cleavage of the synthetic fluorescent peptide substrate Z-Ala-Lys-Arg-7-amino-4-methylcoumarin (MP Biomedicals, Solon, Ohio, USA) in tryptase buffer. B-cell receptor-dependent Erk phosphorylation was measured in Ramos cells by intracellular FACS (anti-pT202/pY204-ERK1/2-AlexaFluor488; BD Biosciences). Cell proliferation assays were performed using A549 epithelial cells and H1299 lung carcinoma cells using nuclear staining to measure cell numbers (4′6-diamidino-2-phenylindole, dihydrochloride (DAPI; Invitrogen, Darmstadt, Germany)).

JAK2 = assay: EPO-dependent survival of cultured human erythroid progenitor cells (CHEP); format: cell-based; conditions: for EC50: Homo sapiens, Erythroid progenitor cell, read-out: EPO CHEP Survival EC50
Protocol: as §1

[2] = tested on: Lew recipients of heterotopic BN heart transplants; assay: Five-day heart allograft study: ELISPOT (IFN-γ, IL-4, IL-17) of recipient splenocytes; format: in vivo, rat; conditions: for IFN-γ spot frequency (ELISPOT) compared to no medication group: LD groups (Compound I 15 mg/kg BID, Compound III 5 mg/kg BID, Tac 1 mg/kg QD), five days; for suppression of IFN-γ response to donor-specific antigens compared to Tac LD treatment: LD groups
Protocol: Compound I and Compound III were provided by Rigel (South San Francisco, Calif.) and Tacrolimus was provided by Astellas (Munich, Germany). All drugs were administrated orally each in two different concentrations: Compound I LD (15 mg/kg BID; n=6) and HD (60 mg/kg BID; n=6); Compound III LD (5 mg/kg BID; n=6) and HD (20 mg/kg BID; n=6); Tac LD (1 mg/kg QD; n=6) and HD (4 mg/kg QD; n=6). Administration of all drugs was performed every day at the same time points. Tacrolimus was applied only once a day (QD) every 24 hours. During administration of Compound I (BID) and Compound III (BID) a 12 hour pause was kept in between each drug application.
Lew recipients of heterotopic BN heart transplants were randomly assigned to their group. Animals were either left untreated (groups 1 and 2; see Table 1,5-day study) or received their group specific medication (groups 3-8; see Table 1,5-day study) by oral application. An untreated syngeneic transplant group Lew-Lew was generated as control.
Lymphocytes were isolated from freshly harvested spleens. ELISPOT assays with 1×10^7/ml mitomycin-inhibited BN splenocytes and 1×10^6/ml Lew splenocytes were performed according to the manufacturer's protocol (BD Biosciences). 96-well plates were coated with IFN-γ, IL-17, and IL-4 to assess T helper cell (Th)1-, Th17-, and Th2-responses independently. All assays were performed in quadruplicates. Spots were automatically enumerated using an ELISPOT plate reader (CTL, Cincinnati, Ohio) for scanning and analyzing.

Syk [3] = assay: IgE CHMC tryptase release; format: cell-based; conditions: Homo sapiens, read-out: IgE CHMC tryptase EC50
Protocol: as §1

JAK1/3 = assay: IL-2 T cell phospho-STAT5; format: cell-based; conditions: Homo sapiens
Protocol: The activity of Compound III and Compound I was assessed in a panel of cell-based assays. Compound III and Compound I are selective inhibitors of JAK1/3-dependent signaling. Data for a non-selective JAK inhibitor (Compound IV) is shown for reference. Mixed lymphocyte reactions (MLRs) were performed by incubating freshly prepared naive human peripheral blood lymphocytes from one donor with CD80+/CD86+ mature Dendritic Cells derived from a different donor for 5 days. The percentage of CD3+/CD71+ (anti-CD3-APC, Clone HIT3a, anti-CD 71-FITC, Clone M-A712; BD Biosciences, San Jose, Calif.) proliferating cells was assessed by fluorescence-activated cell sorting (FACS; BD Bioscience). Interleukin-2 (IL-2)-dependent human primary T cell proliferation was assessed using CellTiter-Glo® Luminescent Cell Viability Assay (Promega, Madison, Wis.). STAT phosphorylation induced by different cytokines in human primary T cells was measured by intracellular FACS analysis (anti-pY694-STAT5 AlexaFluor488, anti-pY701-STAT1 AlexaFluor488, and anti-pY693-STAT4 AlexaFluor488; BD Biosciences). STAT phosphorylation induced by different cytokines was performed in whole blood after red blood cell lysis (Lyse/Fix buffer, BD Biosciences) and methanol permeabilization. Interferon-γ (IFN-γ) signaling was assessed in the U937 monocytic cell line by measuring ICAM-1 surface expression by FACS (ICAM-1-APC, BD Bioscience).

[4] = read-out: EC50, JAK1/3-dependent Stat5 phosphorylation in response to IL-2

COc1cc(Nc2ncc(C)c(Nc3ccc4oc(=O)[nH]c4c3)n2)cc(C)c1F [Compound I, 5-(2-(4-fluoro-3-methoxy-5-methylphenylamino)-5-methylpyrimidin-4-ylamino)benzo[d]oxazol-2(3H)-one]
Insulin HeLa phospho-Akt EC50 (INSR): Inactive
EC50 (Syk [1]; upstream kinase Syk): 1440 ± 586 nM
inhibition of JAK2-dependent CHEP differentiation and survival in response to EPO (JAK2): limited inhibition
EC50 (JAK2; upstream kinase JAK2): 490 ± 246 nM
IL-17 cytokine release (ELISPOT) compared to no medication group ([2]; HD 60 mg/kg BID, p<0.010): significantly suppressed
IL-17 cytokine release (ELISPOT) compared to no medication group ([2]; LD 15 mg/kg BID, p<0.001): significantly suppressed
IL-17 spot frequency compared to Tac LD ([2]; LD 15 mg/kg BID, p<0.001): significantly less spot frequency
IFN-γ spot frequency (ELISPOT) compared to no medication group [2]: significantly reduced
suppression of IFN-γ response to donor-specific antigens compared to Tac LD treatment ([2]; p<0.001): significantly better results
EC50 (Syk [3]; upstream kinase Syk): 457 ± 263 nM
EC50 (JAK1/3; [4]): 21 nM
EC50 (JAK1/3; upstream kinases JAK1/3, read-out: IL-2 T cell phospho-STAT5 EC50): 21 ± 9 nM

COc1cc(Nc2ncc(C)c(Nc3ccc4oc(=O)[nH]c4c3)n2)cc(C)c1C [Compound III, 5-(2-(3-methoxy-4,5-dimethylphenylamino)-5-methylpyrimidin-4-ylamino)benzol[d]oxazol-2-(3H)-one]
Insulin HeLa phospho-Akt EC50 (INSR): Inactive
EC50 (Syk [1]): 1280 ± 190 nM
inhibition of JAK2-dependent CHEP differentiation and survival in response to EPO (JAK2): limited inhibition
EC50 (JAK2): 1110 ± 339 nM
IFN-γ spot frequency compared to Tac HD group ([2]; Compound III LD 5 mg/kg BID, p<0.05): less IFN-γ spot frequency
IFN-γ spot frequency (ELISPOT) compared to no medication group [2]: significantly reduced
suppression of IFN-γ response to donor-specific antigens compared to Tac LD treatment ([2]; p<0.001): significantly better results
EC50 (Syk [3]): 380 ± 150 nM
EC50 (JAK1/3; [4]): 35 nM
EC50 (JAK1/3; read-out: IL-2 T cell phospho-STAT5 EC50): 35 ± 15 nM

Reference: patent publication US8637038B2, “Methods for inhibiting allograft rejection” (Rigel Pharmaceuticals, Inc., priority 2011, dated 2014)
